Results on eleven compounds are retold here after patent US20250092039A1, “GLUTARIMIDE-CONTAINING PAN-KRAS-MUTANT DEGRADER COMPOUNDS AND USES THEREOF” (Tiger Biotherapeutics Inc., priority 2022, published 2025).

For one data set, the system named is SW620 cells. The data set can be described thus: 3D cell growth inhibition of SW620 cells carrying endogenous KRAS G12V mutation (CellTiter-Glo 3D, GI50). The following applies: Homo sapiens, SW-620, 144 h, read-out: SW620 3D cell growth GI50. It is filed as cell-based. In outline:
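SW620 cells (endogenous KRAS G12V) grown in 3D were dosed next day with compound from DMSO stocks at various concentrations, then incubated 6 days at 37° C.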
In general terms: In ATP-based viability assays light output follows the ATP content of the culture.

The nature of data set [1]: Pharmacokinetics following single intravenous and oral gavage dosing (AUC0-24h). It is filed as in vivo. Particulars: mouse, plasma, male CD-1 mice. As for the experimental part:
Compounds disclosed herein were studied for animal tolerability and pharmacokinetics following single intravenous (iv) and oral gavage (po) dosing to male CD-1 mice. For each compound in each dosing route, 3 mice were used with iv dosing volume of 5 mL/kg and po dosing volume of 10 mL/kg. The compounds were formulated in 10% DMSO, 30% PEG400, 60% aqueous solution containing 20% 2-hydroxypropyl-β-cyclodextrin. Blood sampling time points for iv dosing were 0.083, 0.25, 0.5, 1, 2, 4, 8 and 24 h. The sampling time points for po dosing were 0.25, 0.5, 1, 2, 4, 6, 8 and 24 h. Mice activities were monitored and recorded immediately following the dosing. The prepared plasma samples were analyzed using LC/MS/MS on AB Sciex Triple Quad 5500+ system. The PK parameters were determined by non-compartmental analysis using WinNonlin (Version 8.0).

A further data set has as its target KRAS G12V (Homo sapiens (Human), UniProt P01116, G12V). The data set can be described thus: KRAS G12V degradation in SW620 cells (Western blot, DC50). The data set is classed as cell-based. The following applies: 24 hours. In outline:
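SW620 cells (homozygous KRAS G12V) were treated with compound for 24 hours at 37° C. KRAS in lysates was measured by Western blot with fluorescent secondary antibodies and expressed relative to DMSO vehicle (100%). DC50 came from a four-parameter variable-slope dose-response fit.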
For orientation: Immunoblotting shows a protein as a band on a membrane.

In a further data set the target is KRAS-G12V/RAF1 (Homo sapiens (Human), UniProt P01116, G12V). As to the kind of experiment: KRAS/RAF1 binding inhibition assay (AlphaScreen). In outline: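 Binding of GppNHp-loaded KRAS G12V to the RAF1 RBD was measured by AlphaScreen with test compound present in 2% DMSO (final), 60 min incubation at 4° C. Signals were converted to % inhibition versus DMSO, and IC50 was obtained by variable-slope nonlinear regression.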

Where two headings read alike, the source gives them in different places.

Sequence of KRAS-G12V/RAF1 (P01116-2 other isoform, or with tags, fused parts or gaps G12V): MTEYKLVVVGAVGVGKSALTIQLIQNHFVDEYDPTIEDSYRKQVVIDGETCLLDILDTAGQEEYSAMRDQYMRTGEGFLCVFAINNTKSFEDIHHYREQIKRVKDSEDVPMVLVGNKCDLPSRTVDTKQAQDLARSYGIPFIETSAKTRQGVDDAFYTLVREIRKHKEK
Sequence of KRAS G12V (P01116-2 other isoform, or with tags, fused parts or gaps G12V): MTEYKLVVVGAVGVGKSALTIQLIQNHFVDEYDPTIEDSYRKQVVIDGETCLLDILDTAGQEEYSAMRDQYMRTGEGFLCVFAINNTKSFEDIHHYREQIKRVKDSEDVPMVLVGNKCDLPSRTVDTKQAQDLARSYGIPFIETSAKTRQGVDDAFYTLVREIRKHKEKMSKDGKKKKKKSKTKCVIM

As for `CCc1c(F)ccc2cc(O)cc(-c3ncc4c(N5CCC[C@@](C)(O)C5)nc(OCC5(CN6CC(F)(CN7CC8(CCN(c9ccc%10c(c9)CN([C@H]9CCC(=O)NC9=O)C%10=O)CC8)C7)C6)CC5)nc4c3F)c12` [Compound 68, (S)-3-(5-(2-((1-((1-(((7-(8-ethyl-7-fluoro-3-hydroxynaphthalen-1-yl)-8-fluoro-4-((R)-3-hydroxy-3-methylpiperidin-1-yl)pyrido[4,3-d]pyrimidin-2-yl)oxy)methyl)cyclopropyl)methyl)-3-fluoroazetidin-3-yl)methyl)-2,7-diazaspiro[3.5]nonan-7-yl)-1-oxoisoindolin-2-yl)piperidine-2,6-dione], the concentration for 50% growth inhibition (GI50) (commonly the concentration giving 50% growth inhibition) in the data set with SW620 cells (SW620 cells, 6 days) was less than 10 nM. Moreover, the AUC(0-t) – broadly, the area under the concentration-time curve up to a stated or last time point – in data set [1] (single oral dose 30 mg/Kg) is 901 ng·h/mL. For the same compound, the DC50 (in general, the midpoint of the concentration-degradation curve) at KRAS G12V lay within 1 to 10 nM. On KRAS-G12V/RAF1, the 50% inhibitory concentration (IC50) (usually the concentration at which inhibition is half-maximal) was greater than 200 nM.

Consider `CCc1c(F)ccc2cc(O)cc(-c3ncc4c(N5CCC[C@]6(CCO6)C5)nc(OCC5(CN6CCC(F)(CN7CCN(c8ccc9c(c8)CN([C@H]8CCC(=O)NC8=O)C9=O)CC7)CC6)CC5)nc4c3F)c12` [Compound 86, (S)-3-(5-(4-((1-((1-(((7-(8-ethyl-7-fluoro-3-hydroxynaphthalen-1-yl)-8-fluoro-4-((S)-1-oxa-6-azaspiro[3.5]nonan-6-yl)pyrido[4,3-d]pyrimidin-2-yl)oxy)methyl)cyclopropyl)methyl)-4-fluoropiperidin-4-yl)methyl)piperazin-1-yl)-1-oxoisoindolin-2-yl)piperidine-2,6-dione], for which, in the data set with SW620 cells (SW620 cells, 6 days), the GI50 is less than 10 nM. For the same compound, the AUC(0-t) in data set [1] (single oral dose 30 mg/Kg) is 1320 ng·h/mL. Further, on KRAS G12V, the DC50 is less than 1 nM. Besides, at KRAS-G12V/RAF1, the IC50 was in the range of 20 to 200 nM.

Consider `CCc1c(F)ccc2cc(O)cc(-c3ncc4c(N5CCC[C@@](C)(O)C5)nc(OCC5(CN6CCC7(CCC(N8CCN(c9ccc%10c(c9)CN([C@H]9CCC(=O)NC9=O)C%10=O)CC8)CC7)CC6)CC5)nc4c3F)c12` [Compound 120, (S)-3-(5-(4-(3-((1-(((7-(8-ethyl-7-fluoro-3-hydroxynaphthalen-1-yl)-8-fluoro-4-((R)-3-hydroxy-3-methylpiperidin-1-yl)pyrido[4,3-d]pyrimidin-2-yl)oxy)methyl)cyclopropyl)methyl)-3-azaspiro[5.5]undecan-9-yl)piperazin-1-yl)-1-oxoisoindolin-2-yl)piperidine-2,6-dione], for which the GI50 in the data set with SW620 cells (SW620 cells, 6 days) is less than 10 nM. Besides, the AUC(0-t) in data set [1] (single oral dose 50 mg/Kg) is 255 ng·h/mL. The 50% degradation concentration (DC50) on KRAS G12V lay within 1 to 10 nM. Also, the IC50 at KRAS-G12V/RAF1 is less than 20 nM.

Turning to `CCc1c(F)ccc2cc(O)cc(-c3ncc4c(N5CCC[C@@](C)(O)C5)nc(OCC5(CN6CCC7(CC6)CC(N6CCN(c8ccc9c(c8)CN([C@H]8CCC(=O)NC8=O)C9=O)CC6)C7)CC5)nc4c3F)c12` [Compound 121, (S)-3-(5-(4-(7-((1-(((7-(8-ethyl-7-fluoro-3-hydroxynaphthalen-1-yl)-8-fluoro-4-((R)-3-hydroxy-3-methylpiperidin-1-yl)pyrido[4,3-d]pyrimidin-2-yl)oxy)methyl)cyclopropyl)methyl)-7-azaspiro[3.5]nonan-2-yl)piperazin-1-yl)-1-oxoisoindolin-2-yl)piperidine-2,6-dione], the GI50 with SW620 cells (SW620 cells, 6 days) is less than 10 nM. The same compound displayed an AUC(0-t) in data set [1] (single oral dose 50 mg/Kg) of 598 ng·h/mL. The DC50 on KRAS G12V was less than 1 nM. The IC50 at KRAS-G12V/RAF1 is less than 20 nM.

For the compound `CCc1c(F)ccc2cc(O)cc(-c3ncc4c(N5CCC[C@@](C)(O)C5)nc(OCC5(CN6CCC7(CC6)CC(F)(CN6CCN(c8ccc9c(c8)CN([C@H]8CCC(=O)NC8=O)C9=O)CC6)C7)CC5)nc4c3F)c12` [Compound 134, (S)-3-(5-(4-((7-((1-(((7-(8-ethyl-7-fluoro-3-hydroxynaphthalen-1-yl)-8-fluoro-4-((R)-3-hydroxy-3-methylpiperidin-1-yl)pyrido[4,3-d]pyrimidin-2-yl)oxy)methyl)cyclopropyl)methyl)-2-fluoro-7-azaspiro[3.5]nonan-2-yl)methyl)piperazin-1-yl)-1-oxoisoindolin-2-yl)piperidine-2,6-dione], the GI50 in the data set with SW620 cells was less than 10 nM. For the same compound, the AUC(0-t) in data set [1] (single oral dose 30 mg/Kg) was found to be 982 ng·h/mL; in data set [1] (single oral dose 50 mg/Kg), 1940 ng·h/mL. On KRAS G12V, this compound showed a DC50 of less than 1 nM. Besides, on KRAS-G12V/RAF1, the IC50 lay within 20 to 200 nM.

With `CCc1c(F)ccc2cc(O)cc(-c3ncc4c(N5CCC[C@@](C)(O)C5)nc(OCC5(CN6CCC(OC7CC8(CCN(c9ccc%10c(c9)CN(C9CCC(=O)NC9=O)C%10=O)CC8)C7)CC6)CC5)nc4c3F)c12` (stereo partly drawn) [Compound 182, 3-[5-[2-[[1-[[1-[[7-(8-ethyl-7-fluoro-3-hydroxy-1-naphthyl)-8-fluoro-4-[(3R)-3-hydroxy-3-methyl-1-piperidyl]pyrido[4,3-d]pyrimidin-2-yl]oxymethyl]cyclopropyl]methyl]-4-piperidyl]oxy]-7-azaspiro[3.5]nonan-7-yl]-1-oxo-isoindolin-2-yl]piperidine-2,6-dione], the GI50 in the data set with SW620 cells (SW620 cells, 6 days) is less than 10 nM. For the same compound, the AUC(0-t) in data set [1] (single oral dose 30 mg/Kg) was found to be 4900 ng·h/mL. Also, the DC50 at KRAS G12V was less than 1 nM. The same compound returned an IC50 on KRAS-G12V/RAF1 of 20 to 200 nM.

Turning to `CCc1c(F)ccc2cc(O)cc(-c3ncc4c(N5CCC[C@@](C)(O)C5)nc(OCC5(CN6CCC(OC7CCC8(CC7)CN(c7ccc9c(c7)CN(C7CCC(=O)NC7=O)C9=O)C8)CC6)CC5)nc4c3F)c12` (stereo partly drawn) [Compound 184, 3-[5-[7-[[1-[[1-[[7-(8-ethyl-7-fluoro-3-hydroxy-1-naphthyl)-8-fluoro-4-[(3R)-3-hydroxy-3-methyl-1-piperidyl]pyrido[4,3-d]pyrimidin-2-yl]oxymethyl]cyclopropyl]methyl]-4-piperidyl]oxy]-2-azaspiro[3.5]nonan-2-yl]-1-oxo-isoindolin-2-yl]piperidine-2,6-dione], the GI50 with SW620 cells (SW620 cells, 6 days) was less than 10 nM. In data set [1] (single oral dose 30 mg/Kg), this compound showed an AUC(0-t) of 12500 ng·h/mL. The same compound returned a half-maximal degradation concentration (DC50) at KRAS G12V of less than 1 nM. Besides, the IC50 at KRAS-G12V/RAF1 is greater than 200 nM.

Consider `CCc1c(F)ccc2cc(O)cc(-c3ncc4c(N5CCC[C@@](C)(O)C5)nc(OCC5(CN6CCC(C)(CN7CCC(N8CCN(c9ccc%10c(c9)CN([C@H]9CCC(=O)NC9=O)C%10=O)CC8)CC7)CC6)CC5)nc4c3F)c12` [Compound 213, (S)-3-(5-(4-(1-((1-((1-(((7-(8-ethyl-7-fluoro-3-hydroxynaphthalen-1-yl)-8-fluoro-4-((R)-3-hydroxy-3-methylpiperidin-1-yl)pyrido[4,3-d]pyrimidin-2-yl)oxy)methyl)cyclopropyl)methyl)-4-methylpiperidin-4-yl)methyl)piperidin-4-yl)piperazin-1-yl)-1-oxoisoindolin-2-yl)piperidine-2,6-dione], for which the GI50 with SW620 cells (SW620 cells, 6 days) was less than 10 nM. In data set [1] (single oral dose 30 mg/Kg), the AUC(0-t) was 1360 ng·h/mL. On KRAS G12V, this compound displayed a DC50 of less than 1 nM. Besides, the IC50 at KRAS-G12V/RAF1 was less than 20 nM.

Regarding `CCc1c(F)ccc2cc(O)cc(-c3ncc4c(N5CCC[C@]6(CCO6)C5)nc(OCC5(CN6CCC7(CC6)CC(F)(CN6CCN(c8ccc9c(c8)CN([C@H]8CCC(=O)NC8=O)C9=O)CC6)C7)CC5)nc4c3F)c12` [Compound 214, (S)-3-(5-(4-((7-((1-(((7-(8-ethyl-7-fluoro-3-hydroxynaphthalen-1-yl)-8-fluoro-4-((S)-1-oxa-6-azaspiro[3.5]nonan-6-yl)pyrido[4,3-d]pyrimidin-2-yl)oxy)methyl)cyclopropyl)methyl)-2-fluoro-7-azaspiro[3.5]nonan-2-yl)methyl)piperazin-1-yl)-1-oxoisoindolin-2-yl)piperidine-2,6-dione], the GI50 in the data set with SW620 cells (SW620 cells, 6 days) was less than 10 nM. In data set [1] (single oral dose 30 mg/Kg), this compound returned an AUC(0-t) of 1460 ng·h/mL. Also, the DC50 at KRAS G12V was less than 1 nM. This compound also had an IC50 on KRAS-G12V/RAF1 of 20 to 200 nM.

As to `CCc1c(F)ccc2cc(O)cc(-c3ncc4c(N5CCC[C@]6(CCO6)C5)nc(OCC5(CN6CCC7(CC6)CC(F)(CN6CCN(c8cc(F)c(C9CCC(=O)NC9=O)c(F)c8)CC6)C7)CC5)nc4c3F)c12` (stereo partly drawn) [Compound 215, 3-(4-(4-((7-((1-(((7-(8-ethyl-7-fluoro-3-hydroxynaphthalen-1-yl)-8-fluoro-4-((S)-1-oxa-6-azaspiro[3.5]nonan-6-yl)pyrido[4,3-d]pyrimidin-2-yl)oxy)methyl)cyclopropyl)methyl)-2-fluoro-7-azaspiro[3.5]nonan-2-yl)methyl)piperazin-1-yl)-2,6-difluorophenyl)piperidine-2,6-dione], the GI50 in the data set with SW620 cells (SW620 cells, 6 days) is less than 10 nM. This compound gave an AUC(0-t) in data set [1] (single oral dose 30 mg/Kg) of 4710 ng·h/mL. Further, at KRAS G12V, the DC50 was less than 1 nM. In addition, the IC50 on KRAS-G12V/RAF1 is 20 to 200 nM.

For the compound `CCc1c(F)ccc2cc(O)cc(-c3ncc4c(N5CCC[C@]6(CCO6)C5)nc(OCC5(CN6CCC(CN7CCN(c8cc(F)c(C9CCC(=O)NC9=O)c(F)c8)CC7)CC6)CC5)nc4c3F)c12` (stereo partly drawn) [Compound 216, 3-(4-(4-((1-((1-(((7-(8-ethyl-7-fluoro-3-hydroxynaphthalen-1-yl)-8-fluoro-4-((S)-1-oxa-6-azaspiro[3.5]nonan-6-yl)pyrido[4,3-d]pyrimidin-2-yl)oxy)methyl)cyclopropyl)methyl)piperidin-4-yl)methyl)piperazin-1-yl)-2,6-difluorophenyl)piperidine-2,6-dione], in the data set on SW620 cells (SW620 cells, 6 days), the GI50 was less than 10 nM. In data set [1] (single oral dose 15 mg/Kg), the AUC(0-t) turned out to be 2140 ng·h/mL. At KRAS G12V, this compound registered a DC50 of 1 to 10 nM. The IC50 at KRAS-G12V/RAF1 is greater than 200 nM.
